# Experimental data from patent US20240083949A1, “CELL PENETRATING PEPTIDE COMPOSITIONS AND METHODS THEREOF” (The Regents of the University of California, priority 2022, published 2024).
# “Also recorded” adds a separate entry of the source. Positions of bridges follow the written chain, without caps; N, C: chain ends. Non-standard residues stand in square brackets, D forms with d. Lys(N3) = [N-]=[N+]=NCCCC[C@H](N)C(=O)O; Pra = C#CC[C@H](N)C(=O)O
# How the values were obtained:
# U87 cells [1] = assay: Endocytosis inhibitors treatment, RB-EPP6 uptake by flow cytometry; type: cell-based, human; details: 500 nM RB-EPP6, flow cytometry
# Method: (§1) Flow cytometry experiments. To measure the RB signal intensity, a NovoCyte flow cytometer (NovoExpress) was used. Quantification of fluorescence intensity in each condition was performed using Novoxpress software. Fifty thousand cells were analyzed for each condition. A green, fluorescent dye used in DNA staining, YOYO was included in all the flow cytometry experiments, serving as a cell live/dead indicator. For the YOYO only group, the cells were treated with trypsin for 5-10 min. After that, cells were fixed in a 1.5 ml centrifuge tube using 4% paraformaldehyde at room temperature for 15 min. Subsequently, fixed cells were washed with PBS once and was permeabilized using 90% cold MeOH on ice for 15 min. Then, cells were incubated with YOYO in phenol-free medium. After half an hour, cells were centrifuged to get rid of YOYO solution and resuspended in fresh phenol-free medium before doing flow cytometry.
# Endocytosis inhibitors treatment. U87 Cells were incubated with different endocytosis inhibitors for 1 h respectively. Afterwards, old medium was replaced with medium containing 500 nM RB-EPP 6. After 1 h, a trypsin-EDTA solution (0.05%, Sigma) was added to detach the cells. The cells were collected by centrifugation. Fresh phenol-free medium was added to each condition. Once resuspended, cells were filtered into glass tubes before flow cytometry.
# FIBCD1 = molecular target: T1, FIBCD1 (Homo sapiens, UniProt Q8N539); assay: FIBCD1 competition assay; type: cell-based; details: U87 cells, 500 nM RB-EPP6, flow cytometry
# T1 construct: endogenous in cells; host or cells: U87 human glioblastoma cells
# T1 sequence (Q8N539 1-461): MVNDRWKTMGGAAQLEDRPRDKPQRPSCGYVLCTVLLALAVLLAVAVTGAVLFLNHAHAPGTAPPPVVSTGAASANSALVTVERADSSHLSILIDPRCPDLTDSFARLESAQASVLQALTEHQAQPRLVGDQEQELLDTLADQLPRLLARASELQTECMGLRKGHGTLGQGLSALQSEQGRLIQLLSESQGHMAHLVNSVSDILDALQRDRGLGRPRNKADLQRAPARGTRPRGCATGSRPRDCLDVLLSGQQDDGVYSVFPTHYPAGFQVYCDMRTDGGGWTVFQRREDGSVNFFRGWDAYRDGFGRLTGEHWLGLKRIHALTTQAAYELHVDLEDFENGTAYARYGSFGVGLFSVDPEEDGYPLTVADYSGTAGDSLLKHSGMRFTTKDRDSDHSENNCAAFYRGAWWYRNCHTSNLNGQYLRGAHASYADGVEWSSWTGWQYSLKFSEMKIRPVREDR
# Method: as §1
# FIBCD1 competition assay. U87 cells were incubated with 500 nM RB-EPP 6 and YOYO, together with FIBCD1 ligands, sodium acetate (SA) at 3.1 mM (1×) and acetylmannosamine (AMA) at 1.6 mM (1×) respectively. After 1 h, trypsin was added to detach the cells. Cell pallets were collected by centrifugation. Fresh phenol-free medium was added to each condition. Once resuspended, cells were filtered into glass tubes before flow cytometry.
# U87 cells [2] = assay: Confocal imaging of Dye-EPP uptake in U87 cells; type: cell-based, human; details: for ability to enter the cells (intracellular fluorescence): RB-tagged EPPs, ranking among EPP1-7
# Method: Confocal Imaging experiments. To image the cells, a Zeiss 880 inverted confocal laser scanning microscope (Carl Zeiss, Germany) was used. Image acquisition and analyses were carried out using the manufacturer's software (ZEN, Carl Zeiss). Quantification of fluorescence intensity in single cells was performed using Fiji software.
# Dye-EPP incubation. For general incubation, 300 k U87 cells were seeded in full medium containing 10% FBS and 1% PS in a 35×10 mm petri dish. The cells were incubated overnight in full medium. Stock solution of Dye-EPPs were made in DMSO to reach a concentration of 500 μM. Fresh cell culture medium was used to dilute the stock solution to 500 nM and replace the old medium on day 2. Cells were incubated with RB-EPPs for different time periods, followed by a one-time wash with phenol-free fresh culture medium before measurements.
# Concentration gradient experiment. U87 Cells were incubated with RB-EPP 6 at different concentrations (20 nM, 200 nM, 2 μM, 20 μM, 50 μM and 100 μM). After wash with fresh medium once cells were examined by confocal imaging.
# [3] = Octanol-water partition assay; type: physicochemical
# Method: Octanol-water partition assay. For each RB-EPP, pre-mix 250 μl of octanol with 250 μl of water in a 1.5 ml centrifuge tube. 2 μl of RB-EPP was added to the solution at the concentration of 500 μM. After vortex the mixture, centrifuge at the highest speed for 10 min to separate the octanol and water phases. Samples were collected from both phases and quantified by the Analytical HPLC separately.
# a = assay: a
# Excerpt: Table printed on a drawing sheet, FIGURES 7A-7B
# The patent's description of the figure: FIGS. 7A-7B. (FIG. 7a) PAMPA assay results of EPPs.
# First reader's note: Panel a of the sheet; per the description these are PAMPA permeability results, and panel b is a bar graph of the same values.
# different cell lines = assay: RB-EPP6 uptake in different cell lines (confocal imaging); type: cell-based
# Excerpt: Cell lines and cell culture. The human glioblastoma cell line (U87) was gifted from Prof. Wei Wei (Institute For Systems Biology, Seattle). The human monocytic leukemia cell line (THP-1) and the human T-cell leukemia cell line (Jurkat) were purchased from ATCC. The human embryonic kidney cell line (HEK-293T), the human osteosarcoma cell line (U2OS), the human breast cancer cell line (MCF-7), the human metastatic melanoma cell lines (IGR-37, IGR-39, WM266-4 and WM115), the human cervical carcinoma cell line (HeLa), and the human myelogenous leukemia cell line (K562) were gifted from Prof. Yinsheng Wang (UC Riverside). The non-tumorigenic epithelial cell line (MCF 10A) and the human breast adenocarcinoma cell line (MDA-MB-231) were gifted from Prof. Wenwan Zhong (UC Riverside). The canine epithelial kidney cell line (MDCK) and the African green monkey kidney cell line (Vero) were gifted from Prof. Hai Rong (UC Riverside). The human colon carcinoma cell line (HCT116) was gifted from Prof. Xuan Liu (UC Riverside). The human liver carcinoma cell line (HEPG2), the rat liver cell line (MCA7777) and the mouse sarcoma cell line (J774A.1) were gifted from Prof. Joseph Genereux (UC Riverside).
# Confocal Imaging experiments. […] Quantification of fluorescence intensity in single cells was performed using Fiji software. […]
# U87 cells [4] = assay: Heparin binding assay, RB-EPP6 uptake by flow cytometry; type: cell-based, human; details: heparin 10-200 μg/ml
# Method: as §1, with “cytometry. Heparin binding assay. […] A trypsin-EDTA solution (0.05%, Sigma) was added to detach the cells. The cells were collected by centrifugation. Fresh phenol-free medium was added to each condition. Once resuspended, cells were filtered into glass tubes before flow cytometry.” for “cytometry.”
Molecule,effect of inhibitor on RB-EPP6 uptake (U87 cells [1]),Pe (a) [×10⁻⁶ cm/s],other results
O=C(N/N=C/c1ccc(O)c(O)c1)c1cc2ccccc2cc1O [Dynasore],almost completely suppressed,,
O=C1NC(=NS(=O)(=O)c2cccc3ccccc23)S/C1=C\c1ccc(Br)cc1 [Pitstop 2],did not affect the uptake,,
CC(=O)NC1C(O)OC(CO)C(O)C1O (stereo not drawn) [acetylmannosamine],,,effect of FIBCD1 ligand on RB-EPP6 uptake (FIBCD1): inhibit RB-EPP6 uptake in a concentration-dependent manner
C=C1[C@@H](C)[C@H]2[C@H](Cc3ccccc3)NC(=O)[C@]23[C@H](OC(C)=O)/C=C/[C@@](C)(O)C(=O)[C@@H](C)C/C=C/[C@H]3[C@@H]1O [cytochalasin D],significantly decreased,,
CCCCC[C@@H](O)[C@H]1C(=O)O[C@H](C)[C@@H](O)/C=C/C=C/C=C/C=C/C=C(\C)[C@@H](O)C[C@H](O)C[C@H](O)C[C@H](O)C[C@H](O)C[C@H](O)C[C@@H]1O [filipin],did not inhibit,,
c1ccc2c(c1)Nc1ccccc1S2 [phenothazine],did not affect the uptake,,
RB-cy(YTYYT) [RB-EPP3],,,"ability to enter the cells (intracellular fluorescence) (U87 cells [2]; U87 cells, confocal imaging): worst; hydrophobicity (octanol partitioning) [3]: most hydrophobic"
c[Pra-Ser-Tyr-Tyr-Ser-Tyr-Az4] ([Pra]SYYSY[Lys(N3)]; triazole N-C) [EPP7],,0.63243,
c[Pra-Thr-Tyr-Tyr-Thr-Tyr-Az4] ([Pra]TYYTY[Lys(N3)]; triazole N-C) [EPP2],,0.46872,
c[Pra-Tyr-Ser-Tyr-Tyr-Ser-Az4] ([Pra]YSYYS[Lys(N3)]; triazole N-C) [EPP6] [listing 1 of 2 here],,0.234,
c[Pra-Tyr-Ser-Tyr-Tyr-Ser-Az4] ([Pra]YSYYS[Lys(N3)]; triazole N-C) [EPP6] [listing 2 of 2 here],,,"delivery of different fluorescent dye cargo molecules (U87 cells [2]; EPP6 conjugated to different dyes incl. AF555 and AF647, U87 cells): could bring all these cargo molecules into U87 cells; fluorescence intensity in the cells compared with TAT peptide (U87 cells [2]; RB tag, U87 cells, confocal imaging): ~2 ×; ability to enter the cells (intracellular fluorescence) (U87 cells [2]; U87 cells, confocal imaging): highest efficiency; concentration-dependent uptake (fluorescence signal) (U87 cells [2]; U87 cells, 20 nM to 100 μM): higher fluorescence signals across a wide range; uptake in different cell lines (different cell lines): able to enter a wide array of human cancer and noncancer cells, as well as non-human cells"
c[Pra-Tyr-Thr-Tyr-Tyr-Thr-Az4] ([Pra]YTYYT[Lys(N3)]; triazole N-C) [EPP3],,0.11206,
cy(TTTTT) [EPP5],,1.8954,
cy(YYTYT) [EPP1],,0.16201,
heparin,,,effect of heparin on RB-EPP6 uptake (U87 cells [4]): did not affect; also recorded: no inhibitory effect
methyl-β-cyclodextrin,did not inhibit,,
